One may read the EC50 as the midpoint of the concentration-response curve. For orientation: CC50 means the concentration giving 50% cytotoxicity.

The text below walks through data of patent US11945833B2, “Prodrugs of L-BHDU and methods of treating viral infections” (priority 2021, dated 2024).

For data set [1], the system named is VZV-ORF57-Luc. As to the kind of experiment: Antiviral activity in ARPE-19 cells infected with VZV-ORF57-Luc. Format: cell-based, Varicella-zoster virus. The conditions noted are these: for in vitro anti-VZV activity (in words): VZV-ORF57-Luc. How it is done: To enhance the antiviral activity octadecyloxyethyl-L-BHDU (ODE-L-BHDU, 5) and hexadecyloxypropyl-L-BHDU (HDP-L-BHDU, 6), POM-L-BHDU (8), and POC-L-BDHU (14) (FIGS. 1-3, Schemes 1-3) prodrugs were synthesized with modifications to increase bioavailability and cell penetration. Their antiviral activity was evaluated in ARPE-19 cells infected with VZV-ORF57-Luc, a new reporter virus.

The subject of the next data set is HSV-1. As to the kind of experiment: Anti-HSV-1 activity in Vero cells. It is filed as cell-based, herpes simplex virus. The conditions noted are these: for EC50: read-out: EC50 against HSV-1. The protocol:
Additionally, all synthesized compounds were also tested in vitro against herpes simplex viruses (HSV-1, oral herpes) in Vero cells, FIG. 8.

The subject of data set [2] is VZV. As to the kind of experiment: Topical treatment of VZV in human skin explant model. As to conditions: formulated in cocoa butter. An excerpt:
(§1) Each compound was formulated in Cocoa Butter and applied topically. POM was formulated in equimolar concentrations to 0.1% L-BHDU.

Data set [3] is described as follows: Tolerability and weight change in NuSkin mice. The conditions noted are these: male and female mice.
The subject of data set [4] is human fibroblast (HFFs) cells. Format: cell-based. How it is done:
The cellular toxicity of synthesized analogs was determined on low passage of human fibroblast (HFFs) cells by performing 72 h of neutral red dye uptake and MTT cell proliferation assays.

The next data set relates to HSV1. Nature of the data set: Topical treatment of HSV1 in human skin explant model. As to conditions: formulated in cocoa butter.
From the text: as §1

The subject of the next data set is HSV-2. As to the kind of experiment: Anti-HSV-2 activity in Vero cells, bioluminescence imaging. Format: cell-based, herpes simplex virus. How it is done: HSV-2 yield was determined by bioluminescence imaging. Each point represents the mean±standard deviation of a triplicate sample
Furthermore, antiviral activity of these analogs was tested in vitro against the HSV-2 (genital herpes) in Vero cells using acyclovir as a standard drug reference. […] All other analogs, including L-BDHU, were found ineffective against the HSV-2 (FIG. 11, Table 3). After these findings, it was determined that POM-L-BHDU […] has potential against the HSV-1 & HSV-2. Further in vivo evaluation of POM prodrug of the L-BDHU will confirm activity.

Data set [5] relates to VZV-ORF57-Luc. As to the kind of experiment: NuSkin mouse model of VZV replication (adult human skin xenografts), bioluminescence imaging. Format: in vivo, Athymic Nude mice. As to conditions: for in vivo antiviral activity against VZV (in words): s.c. once daily days 3-9 post-infection, equimolar to cidofovir 10 mg/kg; for dose effective in vivo: subcutaneous (s.c.); for activity compared with cidofovir in repeated in vivo studies: subcutaneous (s.c.) as well as oral route, cidofovir 10 mg/Kg. How it is done:
Mice were treated with vehicle or drugs, and virus yield was measured by bioluminescence imaging. VZV growth rate for individual mice (symbols) and the average for the group (bars) are shown in (A) and (B). […] The overall significance on day 10 post-inoculation (DPI 10) is p=0.0352 (one-way ANOVA). ** p<0.01 for OED-L-BHDU & POM-L-BHDU and (student's t test with Welch's correction). Cidofovir group (i.p.) has an average fold change of 2-5 on DPI 10. (B).

The subject of data set [6] is cell-associated VZV-ORF57-Luc. Nature of the data set: Antiviral screening against cell-associated VZV-ORF57-Luc in ARPE-19 cells. It is filed as cell-based, Varicella-zoster virus. How it is done:
Cidofovir and acyclovir are positive controls. Each symbol represents the average of 6 replicate wells; the line is the best fit curve (error bars omitted for clarity).
These studies were performed in the same manner as the efficacy studies described above, except cell-associated VZV-ORF57-Luc, VZV-ORF57-ΔTK, VZV-ORF57-ΔTS and VZV-ORF57-ΔTKTS were used to infect ARPE-19 cells. As before, CDV and ACV were used as positive controls.

The test system of data set [7] is human foreskin fibroblast (HFFS) cells. The conditions noted are these: cited from earlier work.
Data set [8] deals with VZV. The conditions noted are these: cited from earlier work; for in vivo reduction in VZV growth compared to ACV and VACV: previous in vivo studies.
The next data set has as its system VZV-BAC-Luc. As to conditions: previous assay, HFFs infected with VZV-BAC-Luc; read-out: EC50 against VZV in HFFs; cited from earlier work.
The target in data set [9] is T1, dihydropyridine dehydrogenase (Homo sapiens, UniProt Q12882).
T1 sequence (Q12882 4-1025): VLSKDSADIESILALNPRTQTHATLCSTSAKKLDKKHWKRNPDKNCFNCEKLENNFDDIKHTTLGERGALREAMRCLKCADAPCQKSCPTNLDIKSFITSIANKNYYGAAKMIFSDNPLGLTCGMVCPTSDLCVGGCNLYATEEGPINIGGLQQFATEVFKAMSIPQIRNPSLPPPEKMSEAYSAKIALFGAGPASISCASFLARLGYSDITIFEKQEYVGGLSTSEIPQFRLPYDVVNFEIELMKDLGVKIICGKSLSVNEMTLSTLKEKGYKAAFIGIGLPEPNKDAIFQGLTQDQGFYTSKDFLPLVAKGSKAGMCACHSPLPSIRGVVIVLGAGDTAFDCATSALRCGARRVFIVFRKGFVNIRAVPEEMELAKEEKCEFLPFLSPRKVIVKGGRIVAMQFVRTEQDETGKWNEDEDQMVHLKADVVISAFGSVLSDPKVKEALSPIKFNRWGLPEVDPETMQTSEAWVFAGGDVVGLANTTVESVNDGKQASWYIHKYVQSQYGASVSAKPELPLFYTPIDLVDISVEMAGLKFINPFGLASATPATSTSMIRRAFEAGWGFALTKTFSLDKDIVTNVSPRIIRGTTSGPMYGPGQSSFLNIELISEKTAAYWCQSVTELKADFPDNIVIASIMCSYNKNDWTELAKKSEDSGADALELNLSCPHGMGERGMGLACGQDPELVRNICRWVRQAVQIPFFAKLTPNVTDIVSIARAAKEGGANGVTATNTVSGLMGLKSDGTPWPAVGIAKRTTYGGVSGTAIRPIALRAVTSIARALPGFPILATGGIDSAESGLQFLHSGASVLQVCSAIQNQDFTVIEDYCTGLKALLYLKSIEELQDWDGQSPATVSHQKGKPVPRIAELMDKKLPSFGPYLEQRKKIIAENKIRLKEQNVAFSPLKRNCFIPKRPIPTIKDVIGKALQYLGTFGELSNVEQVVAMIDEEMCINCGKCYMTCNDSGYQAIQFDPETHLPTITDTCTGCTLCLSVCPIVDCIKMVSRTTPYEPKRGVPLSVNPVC
As to conditions: cited from earlier work.

The conditions of data set [10]: cited from earlier work.
The mark [11] stands for this setting: read-out: EC50 against VZV-ORF57-Luc.

“Also recorded” adds a separate entry of the source. Like-named read-outs stand apart in the source and are kept apart here. Bounds are passed on as bounds.

For `CC(C)(C)C(=O)OCOP(=O)(OCOC(=O)C(C)(C)C)OC[C@H]1OC[C@@H](n2cc(/C=C/Br)c(=O)[nH]c2=O)O1` [POM-L-BHDU], the “in vitro anti-VZV activity (in words)” value was “significant anti-VZV activity; also recorded: good antiviral efficacy; also recorded: enhanced antiviral potency in comparison to L-BHDU” in the data set with VZV-ORF57-Luc [1]; “better in vitro and in vivo activity in comparison to L-BDHU” in the data set on VZV-ORF57-Luc [1] (listed as POM (8)). Further, the half-maximal effective concentration (EC50) in the data set with HSV-1 worked out at 28 nM; in the data set with HSV-2 (read-out: EC50 against HSV-2), 1400 nM. The “prevention of VZV spread in adult human skin” value in the data set with VZV [2] is “highly effective”. The “tolerability / toxicity in mice” value in data set [3] is reported as “without significant toxicity”; in [3] (listed as POM-L-BDHU), “well-tolerated”. In addition, the CC50 (in [4]; in the data set on Vero Cells) was above 100 µM each time. Further, the “effect on cellular proliferation” value in data set [4] is given as “did not affect cellular proliferation”. The “prevention of HSV1 spread in adult human skin” value in the data set on HSV1 is reported as “highly effective”; in the data set on HSV1 (listed as L-BHDU-POM), “highly effective; also recorded: more effective than topical acyclovir 0.5%”. Also, the entries for the “anti-HSV-2 activity (in words)” value with HSV-2 and in the data set on HSV-2 (listed as POM-L-BDHU) were “active” and “significant activity”, respectively. Besides, the “oral in vivo effectiveness in comparison to cidofovir (ip route)” value in the data set on VZV-ORF57-Luc [5] (oral, FIG. 6B) was “orally equal effective in comparison to cidofovir”. For the same compound, the “in vivo antiviral activity against VZV (in words)” value (shortened to “in vivo antiviral activity”) with VZV-ORF57-Luc [5] was “most active; also recorded: superior antiviral potency compared to L-BHDU; also recorded: retained its antiviral potency; also recorded: better activity compared to parental molecule”; with VZV-ORF57-Luc [5] (listed as POM (8)) it was “better in vitro and in vivo activity in comparison to L-BDHU”. Moreover, the “dose effective in vivo” value in the data set with VZV-ORF57-Luc [5] was “around 25 mg/kg/day”. The “activity compared with cidofovir in repeated in vivo studies” value with VZV-ORF57-Luc [5] is listed as “more active than the cidofovir”.

Consider `CCCCCCCCCCCCCCCCCCOCCOP(=O)(O)OC[C@H]1OC[C@@H](n2cc(/C=C/Br)c(=O)[nH]c2=O)O1` [ODE-L-BHDU, L-BHDU-5′-[(2-octadecyloxyethyl)phosphate]], for which the “in vitro anti-VZV activity (in words)” value in the data set on VZV-ORF57-Luc [1] is reported as “lower antiviral activity relative to L-BHDU”; in the data set with VZV-ORF57-Luc [1] (listed as OED-L-BHDU), “lower in vitro activity than the parental molecule”. In addition, the EC50 turned out to be 68 nM in the data set with VZV-ORF57-Luc [1] (setting [11]) and 757 nM in the data set with HSV-1. Further, the “anti-HSV-1 activity (in words)” value in the data set on HSV-1 is given as “good activity”. Further, the figures for the “tolerability / toxicity in mice” value in data set [3] and in data set [3] (listed as OED-L-BHDU) were “without significant toxicity” and “well-tolerated”, respectively. Further, the “concentration at which cellular cytotoxicity was exhibited” value in the data set on Vero Cells was found to be 20 µM. In data set [6], the “potency against cell-associated VZV-ORF57-Luc compared to CDV or ACV” value is on record as “less potent compared to CDV”. The entries for the “in vivo antiviral activity” value in the data set on VZV-ORF57-Luc [5] and in the data set on VZV-ORF57-Luc [5] (listed as OED-L-BHDU) were “better antiviral activity in comparison to L-BHDU; also recorded: most active” and “superior antiviral potency compared to L-BHDU; also recorded: significantly enhanced in vivo antiviral activity in comparison to L-BHDU”, respectively. In the data set on VZV-ORF57-Luc [5], the “dose effective in vivo” value was “around 25 mg/kg/day”. The “activity compared with cidofovir in repeated in vivo studies” value in the data set on VZV-ORF57-Luc [5] is on record as “more active than the cidofovir”.

As for `CC(C)C(N)C(=O)OCC1OCC(n2cc(/C=C/Br)c(=O)[nH]c2=O)O1` [L-valyl-L-BHDU], the cytotoxic concentration (CC50) in data set [7] is 200 µM. Further, in the data set on VZV [8], the “in vivo reduction in VZV growth compared to ACV and VACV” value was “significant reduction in VZV growth”. In addition, the EC50 with VZV-BAC-Luc is 30 nM.

`O=c1[nH]c(=O)n([C@@H]2CO[C@H](CO)O2)cc1/C=C/Br` [L-BHDU]: the EC50 is 22 nM in the data set with VZV-ORF57-Luc [1] (read-out: EC50 against VZV in ARPE-19s), 22 nM with VZV-ORF57-Luc [1] (setting [11]), 7 nM with HSV-1 and 220 nM with VZV-BAC-Luc. Moreover, the “anti-HSV-1 activity (in words)” value in the data set with HSV-1 is “good activity”. Further, the “prevention of VZV spread in adult human skin” value in the data set on VZV [2] was “highly effective”. Besides, the CC50 (in [4]; in the data set on Vero Cells) was above 100 µM throughout. Further, in [4], the “effect on cellular proliferation” value is “did not affect cellular proliferation”. Further, in data set [9], the “inhibition of dihydropyridine dehydrogenase activity” value was “does not inhibit”. In addition, the “dose effective in SCID-Hu mouse model of VZV replication” value with VZV [8] (human fetal skin) is 15 mg/kg. Moreover, the “in vivo reduction in VZV growth compared to ACV and VACV” value in the data set with VZV [8] is given as “significant reduction in VZV growth”. Besides, the “prevention of HSV1 spread in adult human skin” value in the data set with HSV1 is recorded as “highly effective”. For the same compound, in [10], the “levels in mouse organs” value is “reached high levels in mouse organs but not in the brain”. In addition, the well tolerated dose entry in data set [10] (mouse, in vivo) is listed as “up to 150 mg/kg”. The “anti-HSV-2 activity (in words)” value in the data set with HSV-2 (listed as L-BDHU) is “ineffective; also recorded: inactive”. Further, in the data set on VZV-ORF57-Luc [5], the “in vivo antiviral activity” value was “ineffective”.
